From patent US20090093538A1, “Method for treating cancer” (priority 2007, published 2009)

Legend:
[1] = test system: Hsp70; assay: Cell surface expression of Hsp70, CEM cells (immunofluorescence); assay type: cell-based; conditions: 3 hrs
Method: (§1) After treatment, cells were rinsed one time in PBS then fixed in 2% Paraformaldehyde at room temperature for 20 minutes. Slides with the fixed cells were rinsed with PBS two times. Primary antibody mouse monoclonal anti-Hsp70 (Stressgen SPA-8 10) was diluted 1:100 in PBS and the slides were incubated 1 hour at 37° C. The slides were rinsed two times with PBS. Secondary antibody anti-mouse AlexaFluor 488 (Molecular Probes A-11001) was diluted 1:500 in PBS and the slides were incubated 30 min at 37° C. The slides were rinsed two times in PBS. DAPI (Molecular Probes D-3571) were diluted 1:10,000 in PBS and the slides were incubated at room temperature in dark for 5 min. The slides were rinsed two times in PBS, then once in deionized water and left to dry in dark until almost completely dry. Coverslips were mounted with Prolong Anti-fade Mounting Media (Molecular Probes P-748 1). The images were captured with a monochrome CCD camera SenSys (see FIGS. 27A-D and 28A-D) or by confocal microscopy (see FIG. 29A-E). In FIGS. 27A-D and 28A-D, the bright pink color on the surface of the MCF-7 cells (FIG. 27A-D) or CEM cells (FIG. 28A-D) indicates Hsp70 on the surface of the cells. In FIG. 29A-E the bright green color on the surface of the cell indicates Hsp70 on the surface of the HT29 cells.

[2] = test system: Hsp70; assay: Cell surface expression of Hsp70, HT29 cells (confocal microscopy); assay type: cell-based, human; conditions: HT29, 500 nM, 6 hrs
Method: as §1

[3] = test system: Hsp70; assay: Hsp70 secretion by cultured tumor cells (ELISA); assay type: cell-based, human; conditions: MDA-MB-435, 0.04 μM or 0.2 μM, 72 h
Method: MDA-MB-435 tumor cells were seeded at 15,000 cells/150 μl/well of 48-well plate and cultured in DMEM supplemented with 10% fetal bovine serum. The compounds were dissolved in dimethyl sulfoxide (DMSO) then a solution was prepared containing 0.04 μM or a 0.2 μM in 25% DMSO and 75% culture medium. […] The medium was then separated from the cells and Hsp70 was measured by ELISA kit from Stressgen. Cell viability was checked by CCK-8 cell count assay (Dojindo) at 88 hr.

[4] = test system: MDA-MB-435 cells; assay: Cell viability (Cell Counting Kit-8); assay type: cell-based, human; conditions: Homo sapiens, MDA-MB-435; 500 nM, 72 hours post-drug treatment; read-out: reduction of cell viability
Method: The cells were further cultured at 37° C. for 72 hours and cell viability was measured with Cell Counting Kit-8 (Dojindo Laboratories, Cat# CK04).

[5] = test system: HSB2 cells; assay: Apoptosis, Annexin V / propidium iodide FACS; assay type: cell-based
Method: To confirm that the ability of NAC to block Compound 1-induced cell death was not cell-line specific, we examined the role of oxidative stress in two additional cell lines by FAC analysis. RAMOS and HSB2 cells (ATCC) were seeded in 6-well plates at 1×10^6 cells/well/4 mL and incubated at 37° C. for 4 hours. […] After incubation the cells were stained with Annexin V and propidium iodide (Vybrant Apoptosis assay kit, Cat# V13241, Invitrogen, Molecular Probes) for measuring apoptotic cells by FACS analysis.
The cells were harvested and stained with Annexin V and propidium iodide for measuring apoptotic cells by FACS analysis.

[6] = test system: p38 kinase; assay: p38 phosphorylation, Western blot, MDA-MB-435 cells; assay type: cell-based, human; conditions: 10, 50, 100, 500 or 1000 nM, 4 hours
Method: (§2) After treatment the cells were lysized and used for Western blot analysis.
(§3) Samples were run on a SDS-PAGE gel and proteins were transferred onto a nitrocellulose membrane by a semi-dry transfer. Nitrocellulose was blocked with 5% skim milk in TBS with 0.5% Tween at room temperature for 1 hour and then probed with anti-phospho-p38 (Cell Signaling, #9216) antibody. The nitrocellulose was then probed with secondary antibodies, HRP-conjugated goat anti-rabbit IgG and HRP-conjugated horse anti-mouse IgG (#7074, #7076, Cell Signaling). LumiGLO reagent, 20× Peroxide (#7003, Cell Signaling) was used to visualize gel (see FIG. 35).

[7] = test system: MSK1; assay: MSK1 phosphorylation, Western blot, MDA-MB-435 cells; assay type: cell-based, human; conditions: 10, 50, 100, 500 or 1000 nM, 4 hours
Method: as §2
as §3, with “anti-p-MSK1 (Thr581) (#9595, Cell Signaling)” for “anti-phospho-p38 (Cell Signaling, #9216)”, “36).” for “35).”
Samples were run on a SDS-PAGE gel and proteins were transferred onto a nitrocellulose membrane by a semi-dry transfer. Nitrocellulose was blocked with 5% skim milk in TBS with 0.5% Tween at room temperature for 1 hour and then probed with anti-p-MSK1 (Thr581) (#9595, Cell Signaling) antibody. Tubulin was used as a normalization control and was probed with Anti-Tubulin (T9026, Sigma) antibody.

[8] = test system: human breast tumor MDA-MB-435; conditions: Paclitaxel 5 mg/kg + Compound 1 25 or 50 mg/kg, IV, 3 times a week for 3 weeks, nude mice
Method: The in vivo anti-cancer enhancing effect of novel compounds was assessed in tumor bearing mice using the tumor growth inhibition assay. Tumor cells were implanted by injection of a tumor cell suspension subcutaneously in the flank of a mouse. […] Tumors were measured two times a week. During the course of this assay, animals were monitored daily for signs of toxicity including body weight loss.

[9] = test system: Hsp70; assay: Phase I trial: plasma Hsp70 (sandwich ELISA); assay type: in vivo, human; conditions: co-administered with paclitaxel
Method: Plasma Hsp70 was measured by a sandwich ELISA kit (Stressgen Bioreagents Victoria, British Columbia, CANADA) according to a modified protocol in house. In brief, Hsp70 in plasma specimens and serial concentrations of Hsp70 standard were captured onto 96-well plate on which anti-Hsp70 antibody was coated. Then captured Hsp70 was detected with a biotinylated anti-Hsp70 antibody followed by incubation with europium-conjugated streptavidin. After each incubation, unbound materials were removed by washing. Finally, antibody-Hsp70 complex was measured by time resolved fluorometry of europium. Concentration of Hsp70 was calculated from a standard curve.

[10] = Compound 1 0.2 μM plus NAC 5 mM, 20 hours
[11] = Compound 1 0.2 μM, 20 hours (FIG. 39D)

## CN(NC(=O)CC(=O)NN(C)C(=S)c1ccccc1)C(=S)c1ccccc1 [Compound 1]
[1]; 0.05 μM
  Hsp70 on the surface of cells: bright pink fluorescent color on the surface of the cells indicating Hsp70
[1]; 0.1 μM
  Hsp70 on the surface of cells: brighter than when cells were treated with 0.05 μM of Compound 1
[1]; 0.5 μM
  Hsp70 on the surface of cells: brighter than when cells were treated with 0.05 μM of Compound 1 but about the same as cells treated with 0.1 KIM
[2]
  Hsp70 on the surface of cells: bright green color on the surface of the cells indicating Hsp70
[3]
  secretion of Hsp70: increased the secretion of Hsp70 by the cells in a dose dependent manner
[4]
  cytotoxicity at 0.5 µM: ~90%
[5]; 200 nM Compound 1, 24 hours (DMSO 12%)
  early apoptotic cells: 45%
[5]; [10]
  cells in early stages of apoptosis: 2.9%
  cells in late stages of apoptosis: 3.8%
[5]; Compound 1 0.2 μM plus NAC 5 mM, 24 hours
  early apoptotic cells: 6%
[5]; [11]
  cells in early stages of apoptosis: 26.6%
  cells in late stage apoptosis: 41.5%
[6]
  phosphorylation and activation of p38 kinase: induces the phosphorylation and activation of p38 kinase in a dose dependent manner
[7]
  phosphorylation of MSK1: induces the phosphorylation of MSK1 in a dose dependent manner
[8]
  anti-tumor activity (tumor volume): significantly enhanced anti-tumor activity of paclitaxel
[9]
  induction of Hsp70 protein in plasma: dose dependent
